In patent US8536166B2, “Inhibitors of Burton's tyrosine kinase” (Roche Palo Alto LLC, priority 2008, dated 2013) one finds IC50 and melting point data, which are given here for twelve compounds.

The structures appear in SMILES notation. pIC50: −log10 of the molar value.

The target of one data set is Btk enzyme (His-tagged, full-length) (Homo sapiens (Human), UniProt Q06187). Kind of data set: Bruton's Tyrosine Kinase (Btk) Inhibition Assay. The note with it: 33P filtration capture assay, 100 μM ATP, 30 μM biotinylated peptide substrate. The data set is classed as biochemical. An excerpt: The assay is a capture of radioactive ^33P phosphorylated product through filtration. The interactions of Btk, biotinylated SH2 peptide substrate (Src homology), and ATP lead to phosphorylation of the peptide substrate. Biotinylated product is bound streptavidin sepharose beads. All bound, radiolabeled products are detected by scintillation counter.
Sequence of Btk enzyme (His-tagged, full-length) (Q06187 whole entry): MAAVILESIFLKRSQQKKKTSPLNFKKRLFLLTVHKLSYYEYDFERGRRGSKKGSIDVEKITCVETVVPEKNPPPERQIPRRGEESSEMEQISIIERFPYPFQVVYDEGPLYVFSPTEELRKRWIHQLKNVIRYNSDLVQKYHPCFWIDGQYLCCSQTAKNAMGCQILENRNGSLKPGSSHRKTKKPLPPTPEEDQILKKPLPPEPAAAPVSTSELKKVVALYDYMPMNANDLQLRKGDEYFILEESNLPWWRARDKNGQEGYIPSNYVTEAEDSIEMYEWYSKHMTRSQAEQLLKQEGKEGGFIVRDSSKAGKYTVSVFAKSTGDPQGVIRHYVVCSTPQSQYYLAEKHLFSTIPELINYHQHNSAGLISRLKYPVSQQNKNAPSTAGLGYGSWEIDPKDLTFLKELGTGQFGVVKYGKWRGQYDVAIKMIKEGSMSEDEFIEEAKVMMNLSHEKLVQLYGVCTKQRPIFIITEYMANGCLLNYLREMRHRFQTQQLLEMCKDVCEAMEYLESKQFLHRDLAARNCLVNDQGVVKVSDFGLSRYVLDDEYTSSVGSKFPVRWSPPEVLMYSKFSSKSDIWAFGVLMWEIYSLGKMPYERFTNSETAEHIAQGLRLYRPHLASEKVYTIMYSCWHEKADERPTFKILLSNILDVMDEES
Plates assayed are 96-well polypropylene (Greiner) and 96-well 1.2 μm hydrophilic PVDF filter plates (Millipore). Concentrations reported here are final assay concentrations: 10-100 μM compounds in DMSO (Burdick and Jackson), 5-10 nM Btk enzyme (His-tagged, full-length), 30 μM peptide substrate (Biotin-Aca-AAAEEIYGEI-NH2), 100 μM ATP (Sigma), 8 mM imidazole (Sigma, pH 7.2), 8 mM glycerol-2-phosphate (Sigma), 200 μM EGTA (Roche Diagnostics), 1 mM MnCl2 (Sigma), 20 mM MgCl2 (Sigma), 0.1 mg/ml BSA (Sigma), 2 mM DTT (Sigma), 1 μCi ^33P ATP (Amersham), 20% streptavidin sepharose beads (Amersham), 50 mM EDTA (Gibco), 2 M NaCl (Gibco), 2 M NaCl w/1% phosphoric acid (Gibco), microscint-20 (Perkin Elmer).
IC50 determinations are calculated from 10 data points per compound utilizing data produced from a standard 96-well plate assay template. One control compound and seven unknown inhibitors were tested on each plate and each plate was run twice. Typically, compounds were diluted in half-log starting at 100 μM and ending at 3 nM. The control compound was staurosporine. Background was counted in the absence of peptide substrate. Total activity was determined in the presence of peptide substrate. The following protocol was used to determine Btk inhibition. • 1) Sample preparation: The test compounds were diluted at half-log increments in assay buffer (imidazole, glycerol-2-phosphate, EGTA, MnCl2, MgCl2, BSA). • 2) Bead preparation • a.) rinse beads by centrifuging at 500 g • b.) reconstitute the beads with PBS and EDTA to produce a 20% bead slurry • 3) Pre-incubate reaction mix without substrate (assay buffer, DTT, ATP, ^33P ATP) and mix with substrate (assay buffer, DTT, ATP, ^33P ATP, peptide substrate) 30° C. for 15 mm. • 4) To start assay, pre-incubate 10 μL Btk in enzyme buffer (imidazole, glycerol-2-phosphate, BSA) and 10 μL of test compounds for 10 min at RT. • 5) Add 30 μL reaction mixture without or with substrate to Btk and compounds. • 6) Incubate 50 μL total assay mix for 30 min at 30° C. • 7) Transfer 40 μL of assay to 150 μL bead slurry in filter plate to stop reaction. • 8) Wash filter plate after 30 min, with following steps • a. 3×250 μL NaCl • b. 3×250 μL NaCl containing 1% phosphoric acid • c. […]
For the compound `Cn1cc(Nc2nc(-c3cccc(N4CCc5cc(C6CC6)ccc5C4=O)c3CO)cn(C)c2=O)cn1` [II-5, 6-Cyclopropyl-2-{2-hydroxymethyl-3-[4-methyl-6-(1-methyl-1H-pyrazol-4-ylamino)-5-oxo-4,5-dihydro-pyrazin-2-yl]-phenyl}-3,4-dihydro-2H-isoquinolin-1-one], the pIC50 was 7.80. For the compound `CN(C)C(=O)c1ccc(Nc2nc(-c3cccc(N4CCc5cc(C6CC6)ccc5C4=O)c3CO)cn(C)c2=O)cc1` [II-6, 4-{6-[3-(6-Cyclopropyl-1-oxo-3,4-dihydro-1H-isoquinolin-2-yl)-2-hydroxymethyl-phenyl]-4-methyl-3-oxo-3,4-dihydro-pyrazin-2-ylamino}-N,N-dimethyl-benzamide], the pIC50 is 7.82. `Cn1cc(-c2cccc(N3CCc4cc(C5(F)CC5)ccc4C3=O)c2CO)nc(Nc2ccc(C(=O)N3CCOCC3)cc2)c1=O` [II-11, 6-(1-Fluoro-cyclopropyl)-2-(2-hydroxymethyl-3-{4-methyl-6-[4-(morpholine-4-carbonyl)-phenylamino]-5-oxo-4,5-dihydro-pyrazin-2-yl}-phenyl)-3,4-dihydro-2H-isoquinolin-1-one]: the pIC50 is 8.00. For the compound `Cn1cc(-c2cccc(N3CCc4cc(C5CC5)ccc4C3=O)c2CO)nc(Nc2ccc(C(=O)N3CCC(O)CC3)cc2)c1=O` [II-12, 6-Cyclopropyl-2-(2-hydroxymethyl-3-{6-[4-(4-hydroxy-piperidine-1-carbonyl)-phenylamino]-4-methyl-5-oxo-4,5-dihydro-pyrazin-2-yl}-phenyl)-3,4-dihydro-2H-isoquinolin-1-one], the pIC50 is 8.00.

Tested on in a further data set: not given
Assay: not given
Conditions: not given
`CN(C)c1ccc2c(c1)CCN(c1cccc(-c3cn(C)c(=O)c(Nc4ccc5c(c4)OC(F)(F)O5)n3)c1CO)C2=O` [II-1, 2-{3-[6-(2,2-Difluoro-benzo[1,3]dioxol-5-ylamino)-4-methyl-5-oxo-4,5-dihydro-pyrazin-2-yl]-2-hydroxymethyl-phenyl}-6-dimethylamino-3,4-dihydro-2H-isoquinolin-1-one]: the melting point lay within 145 to 150 °C. On the same count and under the same terms, under `Cn1cc(-c2cccc(N3CCc4cc(C5CC5)ccc4C3=O)c2CO)nc(Nc2ccc(C(=O)N3CCCC3)cc2)c1=O` [II-10, 6-Cyclopropyl-2-(2-hydroxymethyl-3-{4-methyl-5-oxo-6-[4-(pyrrolidine-1-carbonyl)-phenylamino]-4,5-dihydro-pyrazin-2-yl}-phenyl)-3,4-dihydro-2H-isoquinolin-1-one] stands 178 to 180 °C. On the same count and under the same terms, under `Cn1cc(-c2cccc(N3CCc4cc(C5(F)CC5)ccc4C3=O)c2CO)nc(Nc2ccc(C(=O)N3CCOCC3)cc2)c1=O` [II-11, 6-(1-Fluoro-cyclopropyl)-2-(2-hydroxymethyl-3-{4-methyl-6-[4-(morpholine-4-carbonyl)-phenylamino]-5-oxo-4,5-dihydro-pyrazin-2-yl}-phenyl)-3,4-dihydro-2H-isoquinolin-1-one] stands 172 to 174 °C; under `Cn1cc(-c2cccc(N3CCc4cc(C5CC5)ccc4C3=O)c2CO)nc(Nc2ccc(C(=O)N3CCC(O)CC3)cc2)c1=O` [II-12, 6-Cyclopropyl-2-(2-hydroxymethyl-3-{6-[4-(4-hydroxy-piperidine-1-carbonyl)-phenylamino]-4-methyl-5-oxo-4,5-dihydro-pyrazin-2-yl}-phenyl)-3,4-dihydro-2H-isoquinolin-1-one], 171 to 173 °C; under `COC1CCN(C(=O)c2ccc(Nc3nc(-c4cccc(N5CCc6cc(C7CC7)ccc6C5=O)c4CO)cn(C)c3=O)cc2)CC1` [II-13, 6-Cyclopropyl-2-(2-hydroxymethyl-3-{6-[4-(4-methoxy-piperidine-1-carbonyl)-phenylamino]-4-methyl-5-oxo-4,5-dihydro-pyrazin-2-yl}-phenyl)-3,4-dihydro-2H-isoquinolin-1-one], 146 to 148 °C.

Regarding `CN1CCN(C(=O)c2ccc(Nc3nc(-c4cccc(N5CCc6cc(C7CC7)ccc6C5=O)c4CO)cn(C)c3=O)cc2)CC1` [II-14, 6-Cyclopropyl-2-(2-hydroxymethyl-3-{4-methyl-6-[4-(4-methyl-piperazine-1-carbonyl)-phenylamino]-5-oxo-4,5-dihydro-pyrazin-2-yl}-phenyl)-3,4-dihydro-2H-isoquinolin-1-one], the melting point was 172 to 175 °C.

In turn, `CN(CCO)C(=O)c1ccc(Nc2nc(-c3cccc(N4CCc5cc(C6CC6)ccc5C4=O)c3CO)cn(C)c2=O)cc1` [II-15, 4-{6-[3-(6-Cyclopropyl-1-oxo-3,4-dihydro-1H-isoquinolin-2-yl)-2-hydroxymethyl-phenyl]-4-methyl-3-oxo-3,4-dihydro-pyrazin-2-ylamino}-N-(2-hydroxy-ethyl)-N-methyl-benzamide] came in with a melting point of 115 to 117 °C. `Cn1cc(-c2cccc(N3CCc4cc(C5CC5)ccc4C3=O)c2CO)nc(Nc2ccc(C(=O)N3CCN(CCO)CC3)cc2)c1=O` [II-16, 6-Cyclopropyl-2-[3-(6-{4-[4-(2-hydroxy-ethyl)-piperazine-1-carbonyl]-phenylamino}-4-methyl-5-oxo-4,5-dihydro-pyrazin-2-yl)-2-hydroxymethyl-phenyl]-3,4-dihydro-2H-isoquinolin-1-one]: the melting point was in the range of 175 to 180.1 °C. For the compound `CC1CN(C(=O)c2ccc(Nc3nc(-c4cccc(N5CCc6cc(C7CC7)ccc6C5=O)c4CO)cn(C)c3=O)cc2)CC(C)O1` (centres unmarked) [II-17, 6-Cyclopropyl-2-(3-{6-[4-(2,6-dimethyl-morpholine-4-carbonyl)-phenylamino]-4-methyl-5-oxo-4,5-dihydro-pyrazin-2-yl}-2-hydroxymethyl-phenyl)-3,4-dihydro-2H-isoquinolin-1-one], the melting point lay within 173 to 175 °C. Same read-out and setting: in the case of `CCN1CCN(C(=O)c2ccc(Nc3nc(-c4cccc(N5CCc6cc(C7CC7)ccc6C5=O)c4CO)cn(C)c3=O)cc2)CC1` [II-20, 6-Cyclopropyl-2-(3-{6-[4-(4-ethyl-piperazine-1-carbonyl)-phenylamino]-4-methyl-5-oxo-4,5-dihydro-pyrazin-2-yl}-2-hydroxymethyl-phenyl)-3,4-dihydro-2H-isoquinolin-1-one] it was 153 to 155 °C.

For orientation: pIC50 means the negative decadic logarithm of the IC50, by convention in mol/L. A low value points to a high IC50. For orientation: melting point means the temperature of the solid-liquid transition.
